Measurements: patent US7495027B2, “3-aryl-4-hydroxyfuranone compounds and the human and animal health use thereof” (Wyeth, priority 2003, dated 2009)
Values after ≈ are worked out from the molar mass of the structure shown. Like-named read-outs stand apart in the source and are kept apart here.

Tests used:
[1] = target: E. coli Uridine-diphosphate-N-acetvimuramoyl: L-alanine lipase, MurC (Escherichia coli, UniProt P17952); assay: Inhibitory activity against MurC (E. coli); format: biochemical
Protocol: S. aureus and E. coli Uridine-diphosphate-N-acetvimuramoyl: L-alanine lipase, MurC
The buffer is prepared from aqueous reagents with the following final concentrations: 83 mM Tris/HCl (pH 8.0), 50 mM MgC12, and 2 mM ATP.
(§1) Preparation of Enzyme Solution:
A 1 mg/mL stock solution of MurC is prepared in a buffer consisting of 20 mM Tris/HCl (pH 8.5) with 2.5 μM BME. The stock solution is further diluted with the buffer to give a final enzyme concentration of 100 μg/mL for the E. coli stock solution and 70 μg/mL for the S. aureus stock solution.
(§2) Preparation of Test Compound Solutions:
(§3) All test solutions are prepared in DMSO as 10 mg/mL, then diluted with 50 mM Tris/HCl (pH 8.5) to 100 μg/mL.
(§4) Preparation of Stop Solution:
The stop solution is prepared by stirring 1 part 4.2% ammonium molydbate in 4N HCl with 2 parts 0.045% malachite green for 30 min.
In this evaluation, the inhibitory activity of a test compound against MurC, the enzyme which catalyzes the third step of bacterial cell wall bioxynthesis is determined. Experiments are performed by adding 2.5 μl buffer, 2.5 μl 0.5M NH4SO2, 5 μl 2 μM L-Ala, 5 μl enzyme solution and 6.5 μl test compound solution to each well in a 96-well microplate. After a pre-incubation period of 10 mins. at 23° C., 3.75 μl of a 0.75 μM solution of UDP-MurNac is added to each well. Following an incubation period of 10 mins. at 37° C., 210 μl stop solution and 50 μl of a 34% w/v sodium citrate solution are added and color is allowed to develop for 10 mins. at 23° C. (Lanzetta et al., Analytical Biochemistry, 1979, 95) Optical density readings are taken at 660 nm using a Molecular Devices Spectra Max 250 with Soft Max software. Controls are performed using the same procedure and omitting the addition of UDP-MurNac.
Using these values the IC50 is determined by linear regression analysis.

[2] = tested on: enterococci; assay: Minimum inhibitory concentration, microdilution broth method, enterococci; format: cell-based; details: Enterococcus faecalis, Mueller-Hinton broth, 18-22 hours at 35° C.
Protocol: (§5) Evaluation of the Minimum Inhibitory Concentration of Test Compounds Against A Variety of Bacterial Strains
(§6) In this evaluation the minimal inhibitory concentration (MIC) of test compounds against Gram positive and Gram negative bacteria is performed using the microdilution broth method as recommended by the National Committee for Clinical Laboratory Standards (Approved Standards M7-A5 2000). Mueller-Hinton broth is used for the enterobacteriaceae, staphylococci and enterococci. Streptococci are also tested in Mueller-Hinton broth supplemented with 5% horse blood (LHB). Test organisms include recent clinical isolates that are resistant to methicillin, penicillin and/or vancomycin. […].

[3] = target: E. coli UDP-N-acetylglucosamine enolpyruvoyl transferase, MurA (Escherichia coli, UniProt P0A749); assay: biochemical; details: (E) E. coli enzyme
E. coli UDP-N-acetylglucosamine enolpyruvoyl transferase, MurA, sequence (P0A749 whole entry): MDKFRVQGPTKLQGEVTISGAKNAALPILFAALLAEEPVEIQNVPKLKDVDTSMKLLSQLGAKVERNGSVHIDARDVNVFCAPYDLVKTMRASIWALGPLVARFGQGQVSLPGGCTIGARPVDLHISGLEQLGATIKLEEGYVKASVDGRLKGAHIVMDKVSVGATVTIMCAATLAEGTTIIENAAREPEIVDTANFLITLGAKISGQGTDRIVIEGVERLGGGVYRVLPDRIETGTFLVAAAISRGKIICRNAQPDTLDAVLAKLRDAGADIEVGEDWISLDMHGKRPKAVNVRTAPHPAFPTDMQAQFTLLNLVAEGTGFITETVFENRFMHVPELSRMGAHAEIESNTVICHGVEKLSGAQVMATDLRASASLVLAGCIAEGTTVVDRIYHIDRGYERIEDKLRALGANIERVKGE
Protocol: Evaluation of the Inhibitory Activity of Test Compounds Against Enzymes which Catalyze Bacterial Cell Wall Biosynthesis
S. aureus and E. coli UDP-N-acetylglucosamine enolpyruvoyl transferase, MurA
as §1
The enzyme solution is prepared by admixing the following: 50 mM Tris/HCl pH 8.0, […] 1 M Tris, 5 mM DTT, […] 1 M DTT, 20% Glycerol 4 ml 50% Glycerol, add water to 10 ml.
as §4
A procedure similar to that described by C. […] Experiments are performed by adding a solution of test compound (in a mixture of dimethylsulfoxide and water) and an enzyme solution to a well. After a pre-incubation period of 10 mintues at 37° C., Tris/BME buffer and assay buffer are added. A start point optical density (OD0) reading is taken at 340 nm immediately following the addition of assay buffer. After incubation for 1 hr at 37° C., the stop solution is added and the color is allowed to develop for 30 minutes.

[4] = tested on: staphylococci; assay: Minimum inhibitory concentration, microdilution broth method, staphylococci; format: cell-based; details: Staphylococcus aureus, Mueller-Hinton broth, 18-22 hours at 35° C.
Protocol: as §5, §6

[5] = tested on: Streptococci; assay: Minimum inhibitory concentration, microdilution broth method, streptococci; format: cell-based; details: S. pneumo GC 1894; Mueller-Hinton broth with 5% horse blood, 18-22 hours at 35° C.
Protocol: as §5, §6

[6] = target: E. coli Enopyruvyl-UPD-N-acetylglucosamine reductase, Mur B (Escherichia coli, UniProt P08373); assay: biochemical; details: (E) E. coli enzyme; for IC50: read-out: MurB IC50 (converted)
E. coli Enopyruvyl-UPD-N-acetylglucosamine reductase, Mur B, sequence (P08373 whole entry): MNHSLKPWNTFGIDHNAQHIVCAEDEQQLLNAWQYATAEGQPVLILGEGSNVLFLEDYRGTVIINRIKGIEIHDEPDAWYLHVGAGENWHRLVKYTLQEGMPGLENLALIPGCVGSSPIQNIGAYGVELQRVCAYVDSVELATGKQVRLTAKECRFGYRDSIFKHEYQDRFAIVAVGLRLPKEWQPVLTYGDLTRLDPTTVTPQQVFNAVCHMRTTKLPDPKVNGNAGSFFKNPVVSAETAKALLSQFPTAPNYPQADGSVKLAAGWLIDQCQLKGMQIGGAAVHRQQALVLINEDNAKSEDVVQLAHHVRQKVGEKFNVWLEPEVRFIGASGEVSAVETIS
Protocol: S. aureus and E. coli Enopyruvyl-UPD-N-acetylglucosamine reductase, Mur B
Preparation of Tris/BME buffer:
Dilute 17.5 uL of aqueous 5 mM BME (2-mercaptoethanol) to 50 mL with 50 mM Tris/HCl (pH 8.0).
as §1
Dilute aqueous MurB stock solution (0.94 mg/mL) with 200 parts 50 mM Tris/2-BME buffer.
Synthesis of Substrate for MurB (MurA Product EP-UDP-GluNAc):
A mixture of 13 mg UDP-N-acetylglucosamine and 5.5 mg phosphoenolpyruvate are dissolved in 10 mL Tris/BME buffer forming 2 mM concentrations of each reagent in solution.
Preparation of Assay Buffer:
The assay buffer is prepared in water from reagents with the following final concentrations: 100 mM Tris/HCl (pH 8.0), 200 μM NADPH, 100 μM MurB substrate, 10 μM 2-mercaptoethanol, and 10 μM KCl.
Experiments are performed by adding 20 μL of a solution of test compound in a mixture of dimethylsulfoxide and water and 30 μL of enzyme solution to a well. After a pre-incubation period of 20 mins. at 23° C., 50 μL of Tris/BME buffer and 100 μL of assay buffer are added. […] Controls are performed using the same procedure and employing 20 μL of a blank dimethylsulfonide and solvent mixture in place of the test compound solution.
Using these values, the IC50 for each test compound is determined by linear regression analysis.

[7] = target: E. coli Uridine-diphosphate-N-acetylmuramoyl-L-alanine: D-glutamate liease, MurD (Escherichia coli, UniProt P14900); assay: biochemical; details: (E) E. coli enzyme
E. coli Uridine-diphosphate-N-acetylmuramoyl-L-alanine: D-glutamate liease, MurD, sequence (P14900 whole entry): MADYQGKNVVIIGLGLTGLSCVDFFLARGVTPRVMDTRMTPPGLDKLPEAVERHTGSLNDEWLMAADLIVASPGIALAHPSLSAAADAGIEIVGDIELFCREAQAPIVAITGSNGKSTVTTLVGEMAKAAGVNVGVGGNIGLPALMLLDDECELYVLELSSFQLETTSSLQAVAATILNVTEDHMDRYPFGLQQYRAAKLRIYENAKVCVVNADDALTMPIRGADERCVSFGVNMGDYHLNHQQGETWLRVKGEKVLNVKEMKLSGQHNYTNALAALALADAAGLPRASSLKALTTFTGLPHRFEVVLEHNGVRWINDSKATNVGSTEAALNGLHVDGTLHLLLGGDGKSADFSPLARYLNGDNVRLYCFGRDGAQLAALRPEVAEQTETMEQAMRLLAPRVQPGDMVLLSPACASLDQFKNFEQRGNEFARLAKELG
Protocol: S. aureus and E. coli Uridine-diphosphate-N-acetylmuramoyl-L-alanine: D-glutamate liease, MurD
The buffer is prepared from aqueous reagents with the following final concentrations: 83 mM Tris/HCl (pH 8.0), 50 mM MgCl2, and 2 mM ATP.
as §1, §2, §3, §4
In this evaluation, the inhibitory activity of a test compound against MurD, the enzyme which catalyzes the fourth step of bacterial cell wall biosynthesis is determined.

[8] = E. faecalis GC 2242, read-out: MIC E. faecalis GC 2242
[9] = E. faecalis GC 4555, read-out: MIC E. faecalis GC 4555
[10] = S. aureus GC 1131, read-out: MIC S. aureus GC 1131
[11] = S. aureus GC 4543, read-out: MIC S. aureus GC 4543
[12] = (E) E. coli enzyme, read-out: MurC IC50 (converted)

E. coli Uridine-diphosphate-N-acetvimuramoyl: L-alanine lipase, MurC, sequence (P17952 whole entry): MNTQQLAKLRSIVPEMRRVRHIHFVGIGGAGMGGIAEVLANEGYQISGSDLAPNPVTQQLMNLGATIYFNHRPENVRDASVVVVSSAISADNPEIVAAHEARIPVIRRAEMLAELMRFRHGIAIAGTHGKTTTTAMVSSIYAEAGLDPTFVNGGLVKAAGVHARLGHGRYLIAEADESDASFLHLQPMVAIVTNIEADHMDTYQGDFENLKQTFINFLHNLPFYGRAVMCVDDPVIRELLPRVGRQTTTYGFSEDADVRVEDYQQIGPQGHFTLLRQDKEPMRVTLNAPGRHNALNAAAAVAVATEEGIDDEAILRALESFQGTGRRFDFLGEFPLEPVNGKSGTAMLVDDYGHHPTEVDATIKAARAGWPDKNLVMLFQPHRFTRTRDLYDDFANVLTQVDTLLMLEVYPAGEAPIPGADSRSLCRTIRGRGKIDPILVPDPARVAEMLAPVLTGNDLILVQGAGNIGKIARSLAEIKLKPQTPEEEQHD

Compound	MurC IC50 ([1]; (E) E. coli enzyme)	MIC [2, 8] [µg/mL]	MIC [2, 9] [µg/mL]	MurA IC50 [3]	MIC [4, 10] [µg/mL]	MIC [4, 11] [µg/mL]	MIC [5] [µg/mL]	IC50 ([1]; MurC IC50, (E) E. coli enzyme) [µM]	IC50 [3] [µM]	IC50 [6] [µM]	IC50 [7] [µM]	IC50 [1, 12] [µM]	MurB IC50 [6]	MurD IC50 [7]
O=C1O/C(=C\c2ccc(-c3ccccc3)cc2)C(O)=C1c1cccc2ccccc12 [Example 50]	9 (E) μg/mL	8 (≈ 20.5 µM)	32 (≈ 82 µM)	16 (E) μg/mL	8 (≈ 20.5 µM)	4 (≈ 10.2 µM)	4 (≈ 10.2 µM)	–	–	–	–	–	–	–
O=C1O/C(=C\c2ccccc2C(F)(F)F)C(O)=C1c1ccc(-c2ccccc2)cc1 [Example 99, 3-[1.1′-Biphenyl]-4-yl-4-hydroxy-5-{(Z)-[2-(trifluoromethyl)benzylidene]}-5H-furan-2-one]	–	4 (≈ 9.79 µM)	16 (≈ 39.2 µM)	–	4 (≈ 9.79 µM)	2 (≈ 4.9 µM)	0.25 (≈ 0.612 µM)	9.79	9.79	14.7	> 61.2	–	–	–
O=C1O/C(=C\c2cc(F)cc(C(F)(F)F)c2)C(O)=C1c1ccc(-c2ccccc2)c(F)c1 [Example 110]	–	1 (≈ 2.25 µM)	4 (≈ 9 µM)	–	2 (≈ 4.5 µM)	2 (≈ 4.5 µM)	0.25 (≈ 0.563 µM)	–	15.8	11.3	42.8	20.3	–	–
CCCc1ccc(-c2ccc(C3=C(O)/C(=C/c4cc(F)cc(C(F)(F)F)c4)OC3=O)cc2)cc1 [Example 111]	–	1 (≈ 2.13 µM)	16 (≈ 34.2 µM)	–	32 (≈ 68.3 µM)	16 (≈ 34.2 µM)	0.25 (≈ 0.534 µM)	–	> 53.4	23.5	> 53.4	> 53.4	–	–
O=C1O/C(=C\c2cccc(C(F)(F)F)c2Cl)C(O)=C1c1ccc(-c2ccccc2)cc1 [Example 113]	–	1 (≈ 2.26 µM)	4 (≈ 9.03 µM)	–	1 (≈ 2.26 µM)	2 (≈ 4.52 µM)	0.25 (≈ 0.565 µM)	–	9.03	6.77	> 56.5	> 56.5	–	–
O=C1O/C(=C\c2cccc(C(F)(F)F)c2Cl)C(O)=C1c1ccc(-c2ccccc2)c(F)c1 [Example 114]	10 (E) μg/mL	0.5 (≈ 1.09 µM)	2 (≈ 4.34 µM)	1 (E) μg/mL	1 (≈ 2.17 µM)	1 (≈ 2.17 µM)	0.25 (≈ 0.543 µM)	–	–	–	–	–	1 (E) μg/mL	16 (E) μg/mL
CCCc1ccc(-c2ccc(C3=C(O)/C(=C/c4cccc(C(F)(F)F)c4Cl)OC3=O)cc2)cc1 [Example 115]	–	0.25 (≈ 0.516 µM)	2 (≈ 4.12 µM)	–	4 (≈ 8.25 µM)	4 (≈ 8.25 µM)	0.25 (≈ 0.516 µM)	–	10.3	10.3	> 51.6	> 51.6	–	–
CC(C)(C)c1ccc(-c2ccc(C3=C(O)/C(=C/c4cccc(C(F)(F)F)c4Cl)OC3=O)cc2)cc1 [Example 116]	–	4 (≈ 8.02 µM)	4 (≈ 8.02 µM)	–	8 (≈ 16 µM)	8 (≈ 16 µM)	< 0.125	–	6.01	8.02	> 50.1	> 50.1	–	–
CCOc1ccc(-c2ccc(C3=C(O)/C(=C/c4cccc(C(F)(F)F)c4Cl)OC3=O)cc2)cc1 [Example 117]	–	8 (≈ 16.4 µM)	32 (≈ 65.7 µM)	–	64 (≈ 131 µM)	32 (≈ 65.7 µM)	0.5 (≈ 1.03 µM)	–	20.5	14.4	> 51.3	> 51.3	–	–
O=C1O/C(=C\c2cc(C(F)(F)F)ccc2F)C(O)=C1c1ccc(-c2ccccc2)cc1 [Example 118]	–	16 (≈ 37.5 µM)	32 (≈ 75.1 µM)	–	16 (≈ 37.5 µM)	16 (≈ 37.5 µM)	4 (≈ 9.38 µM)	–	35.2	42.2	> 58.6	44.6	–	–
O=C1O/C(=C\c2cc(C(F)(F)F)ccc2F)C(O)=C1c1ccc(-c2ccccc2)c(F)c1 [Example 119]	2 (E) μg/mL	2 (≈ 4.5 µM)	2 (≈ 4.5 µM)	1 (E) μg/mL	2 (≈ 4.5 µM)	2 (≈ 4.5 µM)	0.5 (≈ 1.13 µM)	–	–	–	–	–	1 (E) μg/mL	6 (E) μg/mL
CC(C)(C)c1ccc(-c2ccc(C3=C(O)/C(=C/c4cc(C(F)(F)F)ccc4F)OC3=O)cc2)cc1 [Example 120]	–	4 (≈ 8.29 µM)	8 (≈ 16.6 µM)	–	16 (≈ 33.2 µM)	16 (≈ 33.2 µM)	0.5 (≈ 1.04 µM)	–	8.29	10.4	33.2	47.7	–	–
O=C1O/C(=C\c2cc(C(F)(F)F)ccc2F)C(O)=C1c1cccc(-c2ccccc2)c1 [Example 121]	–	8 (≈ 18.8 µM)	16 (≈ 37.5 µM)	–	4 (≈ 9.38 µM)	2 (≈ 4.69 µM)	0.5 (≈ 1.17 µM)	–	21.1	16.4	–	21.1	–	–
CCOc1ccc(-c2ccc(C3=C(O)/C(=C/c4cc(C(F)(F)F)ccc4F)OC3=O)cc2)cc1 [Example 122]	–	8 (≈ 17 µM)	32 (≈ 68 µM)	–	16 (≈ 34 µM)	16 (≈ 34 µM)	1 (≈ 2.13 µM)	–	34	29.8	> 53.1	> 53.1	–	–
CC(C)(C)c1ccc(-c2ccc(C3=C(O)/C(=C/c4ccc(Cl)c(C(F)(F)F)c4)OC3=O)cc2)cc1 [Example 123]	–	4 (≈ 8.02 µM)	8 (≈ 16 µM)	–	16 (≈ 32.1 µM)	16 (≈ 32.1 µM)	0.5 (≈ 1 µM)	–	42.1	6.01	> 50.1	> 50.1	–	–
O=C1O/C(=C\c2cccc(C(F)(F)F)c2)C(O)=C1c1ccc(-c2ccccc2)cc1 [Example 130]	8 (E) μg/mL	8 (≈ 19.6 µM)	4 (≈ 9.79 µM)	17 (E) μg/mL	4 (≈ 9.79 µM)	4 (≈ 9.79 µM)	0.5 (≈ 1.22 µM)	–	–	22	–	–	–	–
